Laboratory results taken from ChEMBL document CHEMBL4190408 (J Med Chem, 2018).
pIC50: −log10 of the molar value. Converted amounts (≈) assume the structure as drawn. Values belong to the compound of their own block, whether it stands above or below them.

Experiments:
[1] = molecular target: T1, Voltage-gated inwardly rectifying potassium channel KCNH2 (Homo sapiens, UniProt Q12809)
Cytochrome P450 3A4 [2] = molecular target: T2, Cytochrome P450 3A4 (Homo sapiens, UniProt P08684); conditions: liver microsomes
T2 sequence (P08684 whole entry): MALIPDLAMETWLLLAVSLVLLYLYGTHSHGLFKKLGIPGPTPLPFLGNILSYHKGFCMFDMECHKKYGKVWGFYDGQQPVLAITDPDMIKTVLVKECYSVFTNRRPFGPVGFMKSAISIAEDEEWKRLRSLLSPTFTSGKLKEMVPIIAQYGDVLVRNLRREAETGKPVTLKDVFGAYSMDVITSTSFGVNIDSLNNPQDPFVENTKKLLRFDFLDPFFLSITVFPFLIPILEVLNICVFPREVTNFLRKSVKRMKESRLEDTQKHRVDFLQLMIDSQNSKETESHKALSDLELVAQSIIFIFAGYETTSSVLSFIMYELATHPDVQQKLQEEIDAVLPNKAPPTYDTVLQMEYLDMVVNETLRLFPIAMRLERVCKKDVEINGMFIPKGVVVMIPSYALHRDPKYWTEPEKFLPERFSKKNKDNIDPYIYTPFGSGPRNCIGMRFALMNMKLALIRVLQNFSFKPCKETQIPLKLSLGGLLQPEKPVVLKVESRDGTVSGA

[3] = buffer, pH 7.4, 1.5 h
[4] = buffer, 1.5 h, pH 7.4
in vitro [5] = conditions: human, liver microsomes
in vitro [6] = conditions: mouse, liver microsomes
physchem [7] = conditions: phosphate buffer, pH 7.4
physchem [8] = conditions: buffer, pH 7.4
[9] = Thermodynamic solubility of the compound in pH 7.4 solution after 90 mins by UVLC-MS analysis; type: physicochemical; conditions: for Therm_solubility: buffer, pH 7.4, 1.5 h
[10] = molecular target: T1, Voltage-gated inwardly rectifying potassium channel KCNH2; remark: listed apart in the source
Cytochrome P450 3A4 [11] = molecular target: T2, Cytochrome P450 3A4
[12] = molecular target: Phosphatidylinositol 4-kinase beta (Homo sapiens, UniProt Q9UBF8); experiment: Inhibition of recombinant human full length GST-tagged PI4K3beta expressed in baculovirus expression system using PI lipid kinase substrate after 60 mins by ADP-Glo assay
Sequence of Phosphatidylinositol 4-kinase beta (Q9UBF8 whole entry): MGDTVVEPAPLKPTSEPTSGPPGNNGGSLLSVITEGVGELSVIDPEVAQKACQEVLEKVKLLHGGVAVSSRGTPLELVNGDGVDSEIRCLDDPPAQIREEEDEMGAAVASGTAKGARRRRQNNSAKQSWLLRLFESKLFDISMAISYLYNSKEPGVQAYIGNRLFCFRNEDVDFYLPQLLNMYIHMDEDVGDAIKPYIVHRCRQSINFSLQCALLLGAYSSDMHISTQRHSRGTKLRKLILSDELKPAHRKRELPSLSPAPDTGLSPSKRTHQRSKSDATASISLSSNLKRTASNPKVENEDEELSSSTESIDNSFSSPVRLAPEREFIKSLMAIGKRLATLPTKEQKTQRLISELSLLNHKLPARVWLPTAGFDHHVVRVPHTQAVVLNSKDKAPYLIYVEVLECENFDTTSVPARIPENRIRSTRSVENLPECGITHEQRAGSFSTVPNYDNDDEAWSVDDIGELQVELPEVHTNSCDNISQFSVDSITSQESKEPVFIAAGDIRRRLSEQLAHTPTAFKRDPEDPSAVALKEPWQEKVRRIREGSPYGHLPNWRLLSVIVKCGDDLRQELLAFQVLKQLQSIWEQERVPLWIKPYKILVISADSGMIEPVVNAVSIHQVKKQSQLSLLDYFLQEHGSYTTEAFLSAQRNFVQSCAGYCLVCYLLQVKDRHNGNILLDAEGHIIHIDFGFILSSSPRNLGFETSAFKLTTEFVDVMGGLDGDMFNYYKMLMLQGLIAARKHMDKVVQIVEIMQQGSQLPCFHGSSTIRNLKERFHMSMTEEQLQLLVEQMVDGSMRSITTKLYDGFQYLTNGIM

T1 sequence (Q12809 whole entry): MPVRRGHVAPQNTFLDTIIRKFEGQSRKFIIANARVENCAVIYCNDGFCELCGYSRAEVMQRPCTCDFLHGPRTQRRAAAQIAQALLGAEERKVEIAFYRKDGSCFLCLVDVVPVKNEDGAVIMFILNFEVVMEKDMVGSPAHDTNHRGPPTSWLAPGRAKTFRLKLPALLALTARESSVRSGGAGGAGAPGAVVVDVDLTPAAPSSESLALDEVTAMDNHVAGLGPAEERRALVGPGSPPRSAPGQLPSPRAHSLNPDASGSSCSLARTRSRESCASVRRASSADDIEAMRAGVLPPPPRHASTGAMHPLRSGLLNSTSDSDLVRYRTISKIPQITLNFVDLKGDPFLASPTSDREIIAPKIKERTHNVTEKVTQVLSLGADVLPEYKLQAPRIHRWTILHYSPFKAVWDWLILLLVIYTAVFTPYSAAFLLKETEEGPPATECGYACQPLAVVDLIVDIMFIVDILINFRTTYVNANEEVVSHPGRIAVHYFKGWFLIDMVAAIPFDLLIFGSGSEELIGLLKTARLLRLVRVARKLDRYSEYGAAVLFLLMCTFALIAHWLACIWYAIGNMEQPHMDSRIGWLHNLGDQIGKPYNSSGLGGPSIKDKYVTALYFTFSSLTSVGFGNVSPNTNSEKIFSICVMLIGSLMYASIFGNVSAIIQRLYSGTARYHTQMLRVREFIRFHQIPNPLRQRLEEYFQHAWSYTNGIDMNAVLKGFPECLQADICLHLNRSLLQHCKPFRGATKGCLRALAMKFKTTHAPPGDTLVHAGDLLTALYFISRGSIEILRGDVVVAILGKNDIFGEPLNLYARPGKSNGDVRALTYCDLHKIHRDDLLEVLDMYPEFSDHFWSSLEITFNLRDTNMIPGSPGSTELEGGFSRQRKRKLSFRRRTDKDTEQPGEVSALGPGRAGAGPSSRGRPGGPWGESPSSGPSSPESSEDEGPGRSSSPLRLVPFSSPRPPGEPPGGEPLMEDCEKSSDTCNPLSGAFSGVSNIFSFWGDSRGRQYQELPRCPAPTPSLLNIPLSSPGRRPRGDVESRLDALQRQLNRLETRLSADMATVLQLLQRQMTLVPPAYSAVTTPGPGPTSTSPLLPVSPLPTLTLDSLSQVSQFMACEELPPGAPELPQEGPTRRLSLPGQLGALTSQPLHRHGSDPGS

IC50 (Cytochrome P450 3A4 [2]): Nd(Insoluble) | logD [3]: Nd(Insoluble) | Kinetic_solubility [4]: Nd(Insoluble) | microsomal CLint at 0.75 h, 3 µM (in vitro [5]): 34 µL/min/mg | microsomal CLint at 0.75 h, 3 µM (in vitro [6]): 133 µL/min/mg
Structure (SMILES): Nc1nc(N2CCN(C(=O)COc3ccc(Cl)cc3)CC2)c2nc(-c3cccnc3)sc2n1
IC50 [1]: Nd(Insoluble)

logD at 1.5 h (physchem [7]): 2.54 | solubility kinetic at 1.5 h (physchem [8]): 38 µM (≈ 14.5 µg/mL)
Structure (SMILES): Nc1nc(N2CCN(C(=O)c3nc4ccccc4[nH]3)CC2)c2ncsc2n1

Therm_solubility [9]: Nd(Insoluble) | IC50 (Cytochrome P450 3A4 [2]): Nd(Insoluble) | solubility kinetic at 1.5 h (physchem [8]): > 350 µM
Structure (SMILES): COc1ccc(NC(=O)N2CCN(c3nc(N)nc4scnc34)C(C)C2)cc1 (stereo unspecified)
IC50 [1]: Nd(Insoluble)

logD at 1.5 h (physchem [7]): 2.81 | solubility kinetic at 1.5 h (physchem [8]): 34 µM (≈ 12.6 µg/mL)
Structure (SMILES): Cc1cccc(NC(=O)N2CCN(c3nc(N)nc4scnc34)CC2)c1

pIC50 (Cytochrome P450 3A4 [11]): < 4.70 | logD [3]: Nd(Insoluble) | microsomal CLint at 0.75 h, 3 µM (in vitro [5]): 13 µL/min/mg | microsomal CLint at 0.75 h, 3 µM (in vitro [6]): 20 µL/min/mg | solubility kinetic at 1.5 h (physchem [8]): 6 µM (≈ 2.77 µg/mL)
Structure (SMILES): COc1ccc(NC(=O)N2CCN(c3nc(N)nc4sc(-c5ccccc5)nc34)CC2)cc1
pIC50 [10]: 5.77

logD at 1.5 h (physchem [7]): 1.79 | solubility kinetic at 1.5 h (physchem [8]): 293 µM (≈ 113 µg/mL)
Structure (SMILES): COc1ccc(NC(=O)N2CCN(c3nc(N)nc4scnc34)CC2)cn1

Therm_solubility [9]: Nd(Insoluble) | solubility kinetic at 1.5 h (physchem [8]): 170 µM (≈ 70.3 µg/mL)
Structure (SMILES): COc1ccc(NC(=O)N2CCN(c3nc(N)nc4scnc34)[C@H](C)C2)c(C)c1

logD at 1.5 h (physchem [7]): 2.12 | solubility kinetic at 1.5 h (physchem [8]): 33 µM (≈ 12.2 µg/mL)
Structure (SMILES): Cc1ccccc1NC(=O)N1CCN(c2nc(N)nc3scnc23)CC1

Therm_solubility [9]: Nd(Insoluble) | IC50 (Cytochrome P450 3A4 [2]): Nd(Insoluble) | solubility kinetic at 1.5 h (physchem [8]): > 350 µM
Structure (SMILES): COc1ccc(NC(=O)N2CCN(c3nc(N)nc4scnc34)C(C)C2C)cc1 (stereo unspecified)
IC50 [1]: Nd(Insoluble)

pIC50 [12]: < 5.22
Structure (SMILES): COc1ccc(NC(=O)C2CCN(c3nc(N)nc4scnc34)CC2)cc1

logD at 1.5 h (physchem [7]): 1.65 | solubility kinetic at 1.5 h (physchem [8]): 207 µM (≈ 82.9 µg/mL)
Structure (SMILES): COc1ccc(NC(=O)N2CCN(c3nc(N)nc4scnc34)CC2)c(C)n1

Therm_solubility [9]: Nd(Insoluble) | IC50 (Cytochrome P450 3A4 [2]): Nd(Insoluble) | solubility kinetic at 1.5 h (physchem [8]): 88 µM (≈ 36.4 µg/mL)
Structure (SMILES): COc1ccc(NC(=O)N2C[C@H](C)N(c3nc(N)nc4scnc34)C[C@H]2C)cc1
IC50 [1]: Nd(Insoluble)

logD at 1.5 h (physchem [7]): 2.39 | solubility kinetic at 1.5 h (physchem [8]): 82 µM (≈ 33.8 µg/mL)
Structure (SMILES): COc1ccc(NC(=O)N2CCN(c3nc(N)nc4sccc34)[C@@H](C)C2)c(C)c1

logD at 1.5 h (physchem [7]): 2.21 | solubility kinetic at 1.5 h (physchem [8]): 178 µM (≈ 63.3 µg/mL)
Structure (SMILES): Nc1nc(N2CCN(C(=O)Nc3ccccc3)CC2)c2ncsc2n1

solubility thermodynamic at 1.5 h ([9]; pH 7.4 solution, pH 7.4, read-out: Therm_solubility): 362 µM (≈ 150 µg/mL) | pIC50 (Cytochrome P450 3A4 [11]): < 4.70 | solubility kinetic at 1.5 h (physchem [8]): > 350 µM
Structure (SMILES): COc1ccc(NC(=O)N2CCN(c3nc(N)nc4scnc34)[C@@H](C)C2)c(C)n1
pIC50 [10]: < 4.52

Therm_solubility [9]: Nd(Insoluble) | IC50 (Cytochrome P450 3A4 [2]): Nd(Insoluble) | solubility kinetic at 1.5 h (physchem [8]): > 350 µM
Structure (SMILES): COc1ccc(NC(=O)N2CC3CCC(C2)N3c2nc(N)nc3scnc23)cc1
IC50 [1]: Nd(Insoluble)

logD at 1.5 h (physchem [7]): 1.66 | solubility kinetic at 1.5 h (physchem [8]): > 350 µM
Structure (SMILES): COc1cc(C)c(NC(=O)N2CCN(c3nc(N)nc4scnc34)CC2)cn1
